Laboratory results taken from patent US20150183737A1, “COMPOSITIONS AND METHODS FOR SUBSTRATE-SELECTIVE INHIBITION OF ENDOCANNABINOID OXYGENATION” (Vanderbilt University, priority 2012, published 2015).

What was measured:
COX-2 = molecular target: T1, COX-2 (Mus musculus, UniProt Q05769); test: Inhibition of COX-2 oxygenation by acetaminophen and its metabolites; type: biochemical
T1 sequence (Q05769 18-604): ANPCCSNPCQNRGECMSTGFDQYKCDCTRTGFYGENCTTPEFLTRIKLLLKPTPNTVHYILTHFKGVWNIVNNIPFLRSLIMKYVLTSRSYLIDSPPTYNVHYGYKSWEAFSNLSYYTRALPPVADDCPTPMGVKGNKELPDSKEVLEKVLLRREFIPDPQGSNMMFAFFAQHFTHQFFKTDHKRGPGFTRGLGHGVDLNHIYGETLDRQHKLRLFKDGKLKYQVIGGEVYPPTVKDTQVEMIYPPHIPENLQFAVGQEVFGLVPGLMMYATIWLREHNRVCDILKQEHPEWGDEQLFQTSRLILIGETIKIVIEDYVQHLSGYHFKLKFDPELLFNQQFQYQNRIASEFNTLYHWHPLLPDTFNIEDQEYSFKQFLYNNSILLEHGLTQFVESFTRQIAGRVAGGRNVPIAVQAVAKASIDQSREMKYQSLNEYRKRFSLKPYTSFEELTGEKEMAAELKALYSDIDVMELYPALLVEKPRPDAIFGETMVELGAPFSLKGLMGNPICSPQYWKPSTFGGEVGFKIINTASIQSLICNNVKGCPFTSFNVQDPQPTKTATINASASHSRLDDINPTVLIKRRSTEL

[1] = molecular target: T2, COX-2 in lipopolysaccharide-activated RAW264.7 cells (Mus musculus, UniProt Q05769); test: 2-AG oxygenation by lipopolysaccharide-activated RAW264.7 cells; type: cell-based
T2 construct: endogenous in cells; host or cells: RAW 264.7 macrophages stimulated with LPS (and GM-CSF / interferon γ where described)
T2 sequence (Q05769 18-604): T1 sequence (Q05769 18-604)

[2] = molecular target: COX-2 in dorsal root ganglion cells (DRGs) (Mus musculus, UniProt Q05769)
Method: Treatment with inflammatory stimuli was performed as described herein below.
DRGs were harvested from E14 mouse embryos and plated onto collagen-coated dishes. After being cultured for 3-5 days, they were treated overnight with granulocyte-macrophage colony-stimulating factor followed by lipopolysaccharide, interferon γ, and 10 μM 15(S)-hydroxy-5,8,11,13-eicosatetraenoic acid for 6 hours.
DRGs, activated as above for 3 hours were treated with ionomycin for an additional 3 hours to stimulate substrate release.
The amounts of prostaglandin, PG-G, and PG-EA were quantified using stable-isotope dilution methods with labeled internal standards.

purified murine COX-2 = molecular target: T3, purified murine COX-2 (Mus musculus, UniProt Q05769); conditions: chiral profens; at 10 μM inhibitor; data taken from reference 10; cited from earlier work
T3 sequence (Q05769 18-604): T1 sequence (Q05769 18-604)

Compound	Selectivity for inhibition of 2-AG and AEA oxygenation compared to AA oxygenation (COX-2)	Dissociation from COX-2 (COX-2; in the absence of substrate)	Dissociation from COX-2 (COX-2; in the presence of AA)	IC50 (COX-2; read-out: IC50 for inhibition of 2-AG oxygenation)	IC50 [1]	Synthesis of prostaglandins in DRGs ([2]; at concentrations that inhibited PG-G and PG-EA synthesis)	Amounts of AEA and 2-AG in cell extracts ([2]; stimulated DRGs)	% Inhibition AA (purified murine COX-2)
CCCCC/C=C\C/C=C\C/C=C\C/C=C\CCCC(=O)Nc1ccc(O)cc1 [AM-404, N-(4-hydroxyphenyl)arachidonoylamide]	700 fold	slow	rapid	97 nM	46 nM			
COc1ccc2cc([C@@H](C)C(=O)O)ccc2c1 [Compound 7b, (R)-naproxen]						did not inhibit	increased	0%
